Test results as given in patent US8029764B2, “Methods for detection of colorectal cancer” (The Johns Hopkins University, priority 2001, dated 2011).

Tested on: colorectal tissue transcripts
Test: SAGE of normal, adenoma and cancer colorectal tissue (transcript tag counts)
Design: species or system human
Summary of the method: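 SAGE libraries from two normal colonic epithelium samples, two colorectal adenomas (FAP patients, >70% neoplastic cells) and two colorectal cancers. Transcripts counted as 15-base 3′ tags from oligo(dT)-selected mRNA; repeated ditags, linkers and MHC-locus tags excluded before statistical library comparison.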

[1] = normal colorectal tissue library 1
[2] = normal colorectal tissue library 2

| Sequence | AD1 (SAGE tag count) (SAGE library AD1) | AD2 (SAGE tag count) (SAGE library AD2) | CA1 (SAGE tag count) (SAGE library CA1) | CA2 (SAGE tag count) (SAGE library CA2) | NC1 (SAGE tag count) (SAGE library NC1) | NC2 (SAGE tag count) (SAGE library NC2) | AD1 (SAGE tag count) (adenoma library 1) | AD2 (SAGE tag count) (adenoma library 2) | CA1 (SAGE tag count) (cancer library 1) | CA2 (SAGE tag count) (cancer library 2) | NC1 (SAGE tag count) [1] | NC2 (SAGE tag count) [2] | NC2 (SAGE tag count) (SAGE library NC2, major histocompatibility complex, class I, A) | NC2 (SAGE tag count) (SAGE library NC2, major histocompatibility complex, class I, C) |
| --- | --- | --- | --- | --- | --- | --- | --- | --- | --- | --- | --- | --- | --- | --- |
| CTTCCAGCTA (chemistry not fully specified) | 22 | 20 | 14 | 19 | 64 | 31 | – | – | – | – | – | – | – | – |
| TTTCCTCTCA (chemistry not fully specified) | – | – | – | – | – | – | 6 | 2 | 4 | 3 | 21 | 8 | – | – |
| CTGGCAAAGG (chemistry not fully specified) | 1 | 0 | 0 | 0 | 14 | 22 | – | – | – | – | – | – | – | – |
| GGAACTGTGA (chemistry not fully specified) | 10 | 18 | 10 | 2 | 90 | 84 | – | – | – | – | – | – | – | – |
| TAATCCCAGC (chemistry not fully specified) | – | – | – | – | – | – | 8 | 7 | 16 | 13 | 37 | 33 | – | – |
| GGAAGAGCAC (chemistry not fully specified) | 1 | 1 | 2 | 5 | 21 | 11 | – | – | – | – | – | – | – | – |
| CTGGCCCTCG (chemistry not fully specified) | 1 | 3 | 15 | 14 | 186 | 52 | – | – | – | – | – | – | – | – |
| AACGTGCAGG (chemistry not fully specified) | 13 | 6 | 7 | 8 | 29 | 31 | – | – | – | – | – | – | – | – |
| ACAATTGGTC (chemistry not fully specified) | 0 | 0 | 0 | 0 | 0 | 10 | – | – | – | – | – | – | – | – |
| TCAGAGCGCT (chemistry not fully specified) | – | – | – | – | – | – | 0 | 7 | 0 | 1 | 5 | 21 | – | – |
| ACCCAACTGC (chemistry not fully specified) | 0 | 0 | 0 | 0 | 12 | 3 | – | – | – | – | – | – | – | – |
| GTGCACTGAG (chemistry not fully specified) | 14 | 7 | 12 | 13 | 118 | – | – | – | – | – | – | – | 48 | 45 |
| GCTGTGCCTG (chemistry not fully specified) | 2 | 4 | 11 | 8 | 36 | 42 | – | – | – | – | – | – | – | – |
| TGCAGCACGA (chemistry not fully specified) | – | – | – | – | – | – | 5 | 30 | 24 | 16 | 6 | 185 | – | – |
| CAAGAGTTTC (chemistry not fully specified) | 0 | 0 | 0 | 0 | 14 | 2 | – | – | – | – | – | – | – | – |
| GCCGGGTGGG (chemistry not fully specified) | 18 | 24 | 68 | 67 | 207 | 149 | – | – | – | – | – | – | – | – |
| GAGCACCGTG (chemistry not fully specified) | 1 | 0 | 0 | 1 | 7 | 4 | – | – | – | – | – | – | – | – |
| CCTGTGACAG (chemistry not fully specified) | 0 | 4 | 3 | 1 | 22 | 27 | – | – | – | – | – | – | – | – |
| GATATGTAAA (chemistry not fully specified) | 0 | 0 | 0 | 0 | 1 | 10 | – | – | – | – | – | – | – | – |
